Experimental data taken from patent US20090179638A1, “ASSAY FOR IDENTIFYING INHIBITORS OF NEURONAL APOPTOTIC PATHWAYS” (AEGERA THERAPEUTICS INC., priority 2006, published 2009).
Entries after “also recorded” stand apart in the source; their conditions may differ. One block for each compound: values may come before it.

Columns and labels:
PC12^rtTA cells = assay: p75NTR- or NRAGE-induced cell death of PC12rtTA cells (LDH release assay); type: cell-based; conditions: increasing concentrations, 40 hours, LDH
Experimental: FIGS. 2A and 2B are graphs showing that compound 1 inhibits p75NTR or NRAGE induced JNK activation and cell death. Compound 1 inhibits NRAGE (A) or p75NTR (B) mediated cell death. PC12^rtTA cells were infected with recombinant adenoviruses expressing full-length NRAGE (AdNRG) at 5 MOI, full length p75NTR (Adp75) at 50 or 100 MOI, or the control protein β-galactosidase (AdLacZ) (at 5 MOI in (A) and 50 MOI in (B)). At time of infection, the cells were treated with an increasing concentration of compound 1, or with vehicle alone, as indicated. After 40 hours, cells were assayed for death using the lactate dehydrogenase (LDH) assay; untreated cells (Un) and cells treated with 1% Triton X-100 (Tx) were used to delineate the output range of the assay. Results are normalized relative to those obtained with 1% Triton (Tx), and represent the mean±standard deviation of a representative experiment performed in triplicate (*=P<0.005 relative to no compound 1).
PC12^rtTA were infected with adenoviruses encoding p75NTR (Adp75), NRAGE (AdNRG), or as a control, LacZ (AdLacZ), and were concurrently exposed to increasing concentrations of compound 1 for a period of 40 hours. Cell death was assessed using an LDH release assay. […] Treatment with 40 μM compound 1 reduced p75NTR- or NRAGE-induced cell death by greater than 90%.
(§1) Cell culture, infection, transfection and immunoblotting. Sympathetic neurons were maintained and deprived of NGF as previously described (Bamji et al., 1998; Ma et al., 1992). PC12^rtTA cells were maintained and infected as previously described (Majdan et al., 1997; Salehi et al., 2002); for NRAGE, […] doxycycline was added to all plates at time of infection. Wildtype and HSF1 nullizygous immortalized mouse embryonic fibroblasts (MEFs) were maintained in DMEM containing 10% fetal calf serum, 1 μM β-mercaptoethanol, 1% non-essential amino acids, 1% L-glutamine, 1% antimycotic solution and 1% sodium pyruvate (all from GibcoBRL). Sympathetic neuron survival was assessed using the MTS assay according to the manufacturer's instructions (Promega). Analysis of PC12 cell death was determined using a lactate dehydrogenase (LDH) assay (Roche) as per the manufacturer's instructions. Transfections using plasmids or RNAi were performed using Lipofectamine 2000. Immunoblotting was performed as previously described (Majdan et al., 1997; Salehi et al., 2002).

SCG neurons = assay: NGF-withdrawal induced cell death of SCG neurons (MTS assay); type: cell-based, rat; conditions: SCG neurons withdrawn from NGF, 48 hours
Experimental: FIG. 1 is a graph showing that compound 1 inhibits NGF-withdrawal induced cell death. Cultures of rat SCG neurons (see Materials and Methods) initially maintained in 10 ng/ml of NGF were withdrawn from NGF and maintained in media containing compound 1 at the concentrations indicated for 48 hours. Cellular viability was assayed using an MTS assay. (*=P<0.01 relative to no compound 1). Experiments were performed three times with identical results.
Survival of neonatal primary sympathetic neurons is dependent on trophic support provided by Neuronal Growth Factor (NGF) (reviewed in (Young et al., 2004)).
as §1

HSP70 = assay: HSP protein expression in PC12 / PC12rtTA cells (immunoblot); type: cell-based; conditions: PC12rtTA cells infected with AdNRG, Adp75 or AdLacZ, 30 hours (FIG. 6A)
Experimental: FIGS. 4A-4C are photographs of Western blots which illustrate that compound 1 treatment of PC12 cells induces expression of HSP70. A: PC12 cells were infected with 5 MOI of AdNRG (NRG) or AdLacZ (LacZ) as indicated. Cells were left untreated (0) or treated with 40 μM compound 1 at time of infection (30), one hour before lysis (1), or at both times (30+1). Cells were lysed thirty hours after infection, normalized for protein content, and analyzed for levels of phospho-Ser^63 c-Jun and total c-Jun, total JNK, IkBα, and NRAGE by immunoblotting. Lysates from untreated cells are indicated by ‘−’. B: PC12 cells were treated with the indicated concentrations of compound 1 for 18 hours and then lysed, normalized for protein content, and analyzed for levels of HSP70 by immunoblotting. Lysates from untreated cells are indicated by ‘−’. C: RNA isolated from PC12^rtTA cells treated with increasing concentrations of compound 1 for 18 hours was analyzed by rtPCR using primers specific to HSP70, HSP25, HSP90 or actin, as indicated. Experiments in Panel A and B were performed three times and that in Panel C was performed twice, with essentially identical results. D: PC12^rtTA cells were infected with AdNRG at 5 MOI, Adp75 at 50 MOI, or the control virus AdLacZ at 50 MOI. At time of infection, the cells were treated with increasing concentrations of compound 1, or with vehicle alone, as indicated. Thirty hours after infection, cells were lysed, normalized for protein content, and analyzed for levels of c-Jun phosphorylation, HSP70, HSP25, HSP40, NRAGE, p75NTR, JNK-1 and IkBα, as indicated.
FIGS. 6A, 6B and 6C are graphs and photographs of Western blots which illustrate that compound 1 analogues inhibit JNK activation and induce expression of HSP70. A: PC12^rtTA cells were infected with 5 MOI of AdNRG, 50 MOI of Adp75 or 50 MOI of the control virus AdLacZ. At time of infection, the cells were treated with an increasing concentrations of compound 1, or its analogues, compound 2, compound 3, compound 4, or with vehicle alone, as indicated. Thirty hours after infection, cells were lysed, normalized for protein levels, and analyzed for levels of HSP70, HSP25 and JNK-1, as indicated. B: PC12^rtTA cells were treated as above and after 40 hours infection were assayed for death using the lactate dehydrogenase (LDH) assay. Results are normalized relative to those obtained with 1% Triton, and represent the mean±standard deviation of a representative experiment performed in triplicate (*=P<0.025 relative to ‘0’ for each compound concentration). C: PC12^rtTA cells were infected with 50 MOI of LacZ or 5 MOI of AdNRG50 and at the time of infection, were treated with 40 μM compound 1, or its analogues, compound 2, compound 3, compound 4, or with vehicle alone, as indicated. Thirty hours after infection, cells were lysed, normalized for protein levels, and were analyzed for phosphorylated c-Jun, total c-Jun, NRAGE and JNK-1, as indicated. Experiments in Panel A and C were performed twice and that in B were performed twice, with essentially identical results.
To address this, SCG neurons were treated with compound 1 for 18 hours then lysed and assessed for HSP70 levels by immunoblot. Uninfected PC12rtTA cells were treated in a similar manner. […] To test if the accumulation of HSP70 induced by compound 1 reflected increased steady state levels of its mRNA, RNA was isolated from PC12 cells treated with increasing concentrations of compound 1 for 18 hours and the cell lysates subjected to semi-quantitative rtPCR. […] HSP protein levels were also assessed in PC12rtTA cells infected with AdLacZ, Adp75, or AdNRG, and at the same time, exposed to compound 1.

HSP90 protein = assay: STD 1H NMR spectroscopy binding to HSP90; conditions: compound to protein ratio approximately 100:1, 20 mM sodium phosphate buffer pH 6.7
Experimental: (§2) FIG. 9 is a STD 1H NMR Spectrum of Compound 1 and 20 with HSP90 protein. STD NMR experiments were performed at 19° C. on a Varian INNOVA 500 MHz spectrometer equipped with a triple resonance HCN cold probe. A 1D saturation transfer difference pulse sequence with internal subtraction via phase cycling was employed. Residual HDO signal was removed using a W5 WATERGATE pulse sequence, with a […] interpulse delay. On resonance irradiation of the protein was performed at −0.5 ppm, with off-resonance irradiation at 34 ppm. The irradiation power was (g/2p)B1=93 Hz applied through a train of 50 ms eburp1 pulses with a 1 ms delay between the pulses. The total presaturation time was 5.1 s. The relaxation delay was set to 0.1 s. A 30 ms spin-lock pulse with a strength of (g/2p)B1=4600 Hz was used to eliminate background protein signals. The total number of scans was between 1536, with a sweep width of 16 ppm. Spectra were multiplied by a 1 Hz exponential line-broadening function prior to Fourier transform. Compounds 1 (85 uM) and 20 (85 uM) and HSP90 protein (0.85 uM) in 20 mM sodium phosphate buffer (pH 6.7) was used. A) STD 1H NMR spectrum, B) preset reference, and C) STD reference-no saturation/difference.
as §2, with “STD” for “FIG. 9 is a STD 1H NMR Spectrum of Compound 1 and 20 with HSP90 protein. STD”, “employed (Mayer and Meyer, JACS, 2001, 123, 6108-6117).” for “employed.”, “delay (Liu et. al, J. Magn. Res., 1998, 132, 125).” for “delay.”, “1536-2048,” for “1536,”, “transform.” for “transform. Compounds 1 (85 uM) and 20 (85 uM) and HSP90 protein (0.85 uM) in 20 mM sodium phosphate buffer (pH 6.7) was used. A) STD 1H NMR spectrum, B) preset reference, and C) STD reference-no saturation/difference.”
The compound to protein ratio was fixed at approximately 100:1 in 20 mM sodium phosphate buffer (pH 6.7). Compound 20 was used as a reference compound to compare binding affinities of various compounds to HSP90 by comparing the relative intensity of NOE effects in the spectra of compounds 1 and 20 (see FIG. 9), compounds 2 and 20, compounds 5 and 20, compounds 13 and 20, and compounds 15 and 20 (near equamolar quantities of each) in the presence of HSP90 protein. Using the NOE signals for the imidazole proton, and comparing peak heights, the relative kd of the compound pairs were compared (see Meyer and Peters, T. Angew. Chem. Int. Ed. 2003, 42, 864). The kds of the compound pairs ranged from 1:1 to 8:1. These differences in binding affinities correlated to the potency of each respective compound's ability to rescue SCG neurons from NGF withdrawal as previously reported.

[1] = full body radiography
Experimental: The induction of HSP70 was investigated in vivo by the treatment of rats with a single dose of Na-19 (SC, 30 mg/kg).

HSP90 [2] = assay: Photoaffinity-biotin labelling of PC12 protein extracts; type: binding; conditions: 2 uM, 3 hours, UV 30 minutes, approximately 90 kDal band
Experimental: HSP90 was also identified using the photoaffinity-biotinylated probe, compound 7. PC12 protein extracts were separated by SDS page. SDS was removed by incubation in 20% isopropanol and proteins were renatured by incubation in DTT and guanidine HCl. The gel was then incubated for 3 hours with 2 uM compound 7 and then photoactivated for 30 minutes using a UV crosslinker. Proteins were then transferred to nitrocellulose and biotin was detected with HRP-conjugated strepavidin.

HSP90 [3] = assay: ATP-Sepharose interaction assay; type: binding; conditions: purified HSP90 pre-incubated with substance
Experimental: Bound HSP90 was eluted HSP90 content was determined by immunoblotting.
ATP-Sepharose Interaction Assays. These were performed essentially as described in (Grenert et al., 1997). […] 25 ul of ATP-sepharose beads were added and the reactions were incubated for 30 min at 30° C. After thorough washing with ice-cold incubation buffer, bound proteins were eluted in sample buffer and HSP90 content was determined by immunoblotting.

Structure (SMILES): NS(=O)(=O)c1nn2cc(-c3ccc(NC(=O)c4ccccc4)cc3)nc2s1 [Compound 4]
protection from Adp75- or AdNRG-induced cell death (PC12^rtTA cells): do not protect
protection from NGF-withdrawal induced cell death (SCG neurons): do not protect
HSP70 production (HSP70): failed to induce HSP70

Structure (SMILES): [NH-]S(=O)(=O)c1nn2[14cH]c(-c3ccc(-c4cccc(C(F)(F)F)c4)cc3)nc2s1.[Na+] [[^14C]—Na-19, [5-^14C]-6-(3′-(trifluoromethyl)biphenyl-4-yl)imidazo[2,1-b]-1,3,4-thiadiazole-2-sulfonamide Mono Sodium Salt]
radioactivity in sciatic nerve [1]: significant, time dependent, radioactivity in sciatic nerve

Structure (SMILES): [N-]=[N+]=Nc1c(F)c(F)c(-c2cn3nc(S(=O)(=O)CCNC(=O)CCCCC4SC[C@H]5NC(=O)N[C@@H]45)sc3n2)c(F)c1F (some centres unmarked) [Compound 7]
photoaffinity labelled band (HSP90 [2]): consistent with binding to HSP90

Structure (SMILES): NS(=O)(=O)c1nn2cc(-c3ccc(OCC(=O)O)cc3)nc2s1 [Compound 3]
protection from Adp75- or AdNRG-induced cell death (PC12^rtTA cells): do not protect
protection from NGF-withdrawal induced cell death (SCG neurons): do not protect
HSP70 production (HSP70): failed to induce HSP70

Structure (SMILES): Nc1ncnc2c1ncn2[C@@H]1O[C@H](COP(=O)(O)OP(=O)(O)OP(=O)(O)O)[C@@H](O)[C@H]1O [ATP, reference compound]
binding of HSP90 to gATP-Sepharose (HSP90 [3]): strongly inhibited

Next, values leading:

binding to HSP90 protein by STD 1H NMR (HSP90 protein): directly bind
Structure (SMILES): CC(C)(C)c1ccc(-c2cn3nc(S(N)(=O)=O)sc3n2)cc1 [Compound 15]

binding to HSP90 protein by STD 1H NMR (HSP90 protein): directly bind
Structure (SMILES): COCCOCCOc1ccc(-c2cn3nc(S(N)(=O)=O)sc3n2)cc1 [Compound 13]

binding to HSP90 protein by STD 1H NMR (HSP90 protein): Positive; also recorded: directly bind
Structure (SMILES): CC(=O)N1CCN(CC[S+]([O-])c2nn3cc(-c4ccccc4)nc3s2)CC1 (centres unmarked) [Compound 20]

binding to HSP90 protein by STD 1H NMR (HSP90 protein): directly bind
Structure (SMILES): NS(=O)(=O)c1nn2cc(-c3ccc4c(c3)OCCCO4)nc2s1 [Compound 12]

binding to HSP90 protein by STD 1H NMR (HSP90 protein): directly bind
Structure (SMILES): NS(=O)(=O)c1nn2cc(-c3ccc(O)cc3)nc2s1 [Compound 5]
